Results taken from patent publication US11976068B2 (CHIMERIX, INC., priority 2015, dated 2024).
“And” between values parts separate entries of the source, which are not always exact repeats. Identical values can stand only once.

Experiments:
human MDR1 = human MDR1 (Homo sapiens, UniProt P08183); conditions: at 200 micromolar
[1] = tested on: human colon cancer cell line (HCT116), breast tumor cell line (MDA-MB-231), human primary glioblastoma cell line (U87); assay: Cell viability, tumor cells (FIG. 1)
TRAIL = assay: Phase I trial, serum TRAIL ELISA; assay type: in vivo, human
advanced solid tumors = assay: Phase I trial, tumor response (RECIST); assay type: in vivo, human
Protocol: Tumor responses were assessed using RECIST every 2 cycles.

[2] = Phase I trial, safety and toxicity assessment
[3] = Phase I trial, plasma pharmacokinetics of oral ONC201; conditions: for AUC(0-t): AUClast; for Vd/F: Vz/F
human BCRP = biological target: T1, human BCRP (Homo sapiens, UniProt Q9UNQ0); assay: BCRP inhibition, bidirectional permeability of prazosin in MDCKII-BCRP monolayers; conditions: at 200 micromolar
T1 sequence (Q9UNQ0 1-655): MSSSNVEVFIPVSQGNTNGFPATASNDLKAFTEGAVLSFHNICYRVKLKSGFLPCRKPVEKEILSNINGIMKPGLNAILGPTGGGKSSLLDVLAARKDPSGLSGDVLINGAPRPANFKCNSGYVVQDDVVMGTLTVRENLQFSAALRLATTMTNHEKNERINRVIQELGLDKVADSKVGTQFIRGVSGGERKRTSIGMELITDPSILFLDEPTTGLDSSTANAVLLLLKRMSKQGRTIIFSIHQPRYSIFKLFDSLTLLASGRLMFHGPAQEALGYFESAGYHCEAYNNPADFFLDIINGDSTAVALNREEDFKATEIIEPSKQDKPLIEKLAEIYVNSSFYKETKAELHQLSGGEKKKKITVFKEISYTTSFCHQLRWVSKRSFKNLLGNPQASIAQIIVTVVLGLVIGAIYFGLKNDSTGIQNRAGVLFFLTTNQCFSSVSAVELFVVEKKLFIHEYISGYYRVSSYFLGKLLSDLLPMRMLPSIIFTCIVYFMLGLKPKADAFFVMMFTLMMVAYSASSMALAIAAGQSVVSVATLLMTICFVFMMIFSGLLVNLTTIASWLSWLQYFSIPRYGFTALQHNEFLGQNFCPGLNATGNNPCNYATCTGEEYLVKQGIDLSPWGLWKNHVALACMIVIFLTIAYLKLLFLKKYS

[4] = Pat # 1, NSCLC, 125 mg every three weeks, dose escalation phase
[5] = Pat # 2, Appendiceal adenocarcinoma, 250 mg every three weeks, dose escalation phase
[6] = Pat # 3, Uterine cancer, 375 mg every three weeks, dose escalation phase
[7] = Pat # 4, Renal cancer, 500 mg every three weeks, dose escalation phase
[8] = Pat # 5, Breast cancer, 625 mg every three weeks, dose escalation phase
[9] = Pat # 6, Prostate adenocarcinoma, 625 mg every three weeks, dose escalation phase
[10] = Pat # 7, Small cell lung cancer, 625 mg every three weeks, dose escalation phase
[11] = Pat # 8, Colon adenocarcinoma, 625 mg every three weeks, dose escalation phase
[12] = Pat # 9, Spindle cell sarcoma, 625 mg every three weeks, dose escalation phase
[13] = Pat # 10, Ovarian, 625 mg every three weeks, dose escalation phase
[14] = Pat # 11, Uterine cancer, 625 mg every three weeks, expansion phase
[15] = Pat # 13, Ovarian cancer, 625 mg every three weeks, expansion phase
[16] = Pat # 14, Gall bladder cancer, 625 mg every three weeks, expansion phase
[17] = Pat # 15, Desmoplastic small round cell tumor (DSRCT), 625 mg every three weeks, expansion phase
[18] = Pat # 16, Colon cancer, 625 mg every three weeks, expansion phase
[19] = Pat # 17, Prostate adenocarcinoma, 625 mg every three weeks, expansion phase
[20] = Pat # 18, Ovarian cancer, 625 mg every three weeks, expansion phase
[21] = Pat # 19, Prostate adenocarcinoma, 625 mg every three weeks, expansion phase
[22] = Pat # 20, Uterine Cancer, 625 mg every three weeks, expansion phase
[23] = N=6 patients receiving 625 mg ONC201 every three weeks
[24] = human, in vivo, 625 mg, Mean, N=6 patients receiving 625 mg ONC201 every three weeks
[25] = human, in vivo, 625 mg, Median, N=6 patients receiving 625 mg ONC201 every three weeks
[26] = human, in vivo, 625 mg, Geo. Mean, N=6 patients receiving 625 mg ONC201 every three weeks

human MDR1, sequence (P08183 whole entry): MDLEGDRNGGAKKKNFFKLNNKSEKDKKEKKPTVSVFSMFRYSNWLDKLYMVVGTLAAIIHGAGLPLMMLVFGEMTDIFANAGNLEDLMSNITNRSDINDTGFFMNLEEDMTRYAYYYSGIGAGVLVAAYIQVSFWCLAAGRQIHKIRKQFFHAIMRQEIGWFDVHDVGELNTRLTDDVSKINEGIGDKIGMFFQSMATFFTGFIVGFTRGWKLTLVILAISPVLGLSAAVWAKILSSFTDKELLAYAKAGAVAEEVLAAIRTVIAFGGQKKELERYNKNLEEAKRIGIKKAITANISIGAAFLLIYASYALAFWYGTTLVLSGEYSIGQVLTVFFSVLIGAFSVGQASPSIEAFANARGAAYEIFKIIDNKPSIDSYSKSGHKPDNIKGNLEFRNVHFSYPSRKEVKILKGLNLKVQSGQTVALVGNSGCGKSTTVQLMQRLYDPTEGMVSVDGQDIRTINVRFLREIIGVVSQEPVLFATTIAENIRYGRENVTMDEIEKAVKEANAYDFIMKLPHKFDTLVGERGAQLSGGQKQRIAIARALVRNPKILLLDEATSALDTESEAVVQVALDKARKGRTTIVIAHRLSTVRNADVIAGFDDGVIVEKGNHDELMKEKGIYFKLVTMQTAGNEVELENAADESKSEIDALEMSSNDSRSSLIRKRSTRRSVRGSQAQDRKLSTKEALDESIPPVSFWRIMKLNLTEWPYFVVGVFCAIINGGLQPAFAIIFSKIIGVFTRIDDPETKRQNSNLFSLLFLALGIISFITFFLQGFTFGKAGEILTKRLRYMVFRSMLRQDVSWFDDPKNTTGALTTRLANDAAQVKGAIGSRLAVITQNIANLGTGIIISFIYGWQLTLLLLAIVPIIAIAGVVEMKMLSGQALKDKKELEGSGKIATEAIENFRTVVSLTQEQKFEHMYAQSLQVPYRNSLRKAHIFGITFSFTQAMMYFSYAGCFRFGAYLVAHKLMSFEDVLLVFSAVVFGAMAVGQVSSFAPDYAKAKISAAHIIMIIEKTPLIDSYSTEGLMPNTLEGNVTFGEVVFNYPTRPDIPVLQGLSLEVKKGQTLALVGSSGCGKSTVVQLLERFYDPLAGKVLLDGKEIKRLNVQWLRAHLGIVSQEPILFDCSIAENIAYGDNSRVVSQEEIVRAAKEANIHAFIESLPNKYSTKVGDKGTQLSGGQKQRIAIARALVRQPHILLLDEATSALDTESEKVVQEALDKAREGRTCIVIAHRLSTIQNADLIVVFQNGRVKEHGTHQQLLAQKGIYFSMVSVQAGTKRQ

For `Cc1ccccc1CN1C(=O)C2=C(CCN(Cc3ccccc3)C2)N2CCN=C12` [ONC201, 7-benzyl-4-(2-methylbenzyl)-2,4,6,7,8,9-hexahydroimidazo [1,2-a]pyrido[3,4-e]pyrimidin-5(1H)-one], the “inhibitor of MDR1” value (human MDR1) was “inhibitor”, the viability at 5000 µg/mL ([1]; Homo sapiens, 72 h, read-out: viability of tumor cells) was < 25% and the “viability of tumor cells” value ([1]; about 1-5 mg/mL compound (1), 72 hours) was ≤ 50%. For the same compound, the “increase in serum TRAIL” value (TRAIL; half of the patients, mostly peaked within the first 24 hours of drug administration) was ~20%, the “number of patients with serum TRAIL induction” value (TRAIL; serum soluble TRAIL) was 2 and the “Time on Study” value (advanced solid tumors; Pat # 1, NSCLC, 125 mg, 4 doses) was 12 weeks. The “Time on Study” value (advanced solid tumors; Pat # 2, Appendiceal cancer, 250 mg, 4 doses) was 12 weeks, the “Time on Study” value (advanced solid tumors; Pat # 3, Uterine cancer, 375 mg, 2 doses) was 6 weeks and the “Time on Study” value (advanced solid tumors; Pat # 4, Renal cancer, 500 mg, 2 doses) was 6 weeks. The “Time on Study” value (advanced solid tumors; Pat # 5, Breast cancer, 625 mg, 2 doses) was 6 weeks, the “Time on Study” value (advanced solid tumors; Pat # 6, Prostate adenocarcinoma, 625 mg, 9 doses) was 27 weeks and the “Time on Study” value (advanced solid tumors; Pat # 7, Small cell lung cancer, 625 mg, 2 doses) was 6 weeks. The “Time on Study” value (advanced solid tumors; Pat # 8, Colon adenocarcinoma, 625 mg, 4 doses) was 12 weeks, the “Time on Study” value (advanced solid tumors; Pat # 9, Spindle cell sarcoma, 625 mg, 2 doses) was 6 weeks and the “Time on Study” value (advanced solid tumors; Pat # 10, Ovarian, 625 mg, 1 dose) was 3 weeks. For the same compound, the “decrease of multiple nodes” value (advanced solid tumors; Patient #3, advanced clear cell endometrial cancer, mixed response with new nodes) was > 30%, the symptom relief (advanced solid tumors; Patient #4, renal cancer and bone metastasis with debilitating pain in the clavicle) was “relief from their clavicular pain” and the “patients with stable disease” value (advanced solid tumors; dose escalation phase, 10 patients) was “Eight of 10”. The “only adverse event possibly attributed to ONC201, expansion phase” value ([2]; 10 patients, 625 mg every 3 weeks) was “vomiting in one patient”, the “only adverse event possibly attributed to ONC201, dose escalation phase” value ([2]; 10 patients, 125-625 mg every 3 weeks) was “low grade fever in one patient” and the “Adverse Events Grade 1” value [2, 4] was “Fever”. The “Adverse Events Grade 2-4” value [2, 4] was 0, the “Adverse Events Grade 1” value [2, 5] was 0 and the “Adverse Events Grade 2-4” value [2, 5] was 0. For the same compound, the “Adverse Events Grade 1” value [2, 6] was 0, the “Adverse Events Grade 2-4” value [2, 6] was 0 and the “Adverse Events Grade 1” value [2, 7] was 0. The “Adverse Events Grade 2-4” value [2, 7] was 0, the “Adverse Events Grade 1” value [2, 8] was 0 and the “Adverse Events Grade 2-4” value [2, 8] was 0. For the same compound, the “Adverse Events Grade 1” value [2, 9] was 0, the “Adverse Events Grade 2-4” value [2, 9] was 0 and the “Adverse Events Grade 1” value [2, 10] was 0. For the same compound, the “Adverse Events Grade 2-4” value [2, 10] was 0, the “Adverse Events Grade 1” value [2, 11] was 0 and the “Adverse Events Grade 2-4” value [2, 11] was 0. For the same compound, the “Adverse Events Grade 1” value [2, 12] was 0, the “Adverse Events Grade 2-4” value [2, 12] was 0 and the “Adverse Events Grade 1” value [2, 13] was 0. The “Adverse Events Grade 2-4” value [2, 13] was 0, the “Adverse Events Grade 1” value [2, 14] was 0 and the “Adverse Events Grade 2-4” value [2, 14] was 0. For the same compound, the “Adverse Events Grade 1” value ([2]; Pat # 12, Uterine cancer, 625 mg every three weeks, expansion phase) was 0, the “Adverse Events Grade 1” value [2, 15] was “Vomiting” and the “Adverse Events Grade 2-4” value [2, 15] was 0. For the same compound, the “Adverse Events Grade 1” value [2, 16] was 0, the “Adverse Events Grade 2-4” value [2, 16] was 0 and the “Adverse Events Grade 1” value [2, 17] was 0. For the same compound, the “Adverse Events Grade 2-4” value [2, 17] was 0, the “Adverse Events Grade 1” value [2, 18] was 0 and the “Adverse Events Grade 2-4” value [2, 18] was 0. The “Adverse Events Grade 1” value [2, 19] was 0, the “Adverse Events Grade 2-4” value [2, 19] was 0 and the “Adverse Events Grade 1” value [2, 20] was 0. The “Adverse Events Grade 2-4” value [2, 20] was 0, the “Adverse Events Grade 1” value [2, 21] was 0 and the “Adverse Events Grade 2-4” value [2, 21] was 0. The “Adverse Events Grade 1” value [2, 22] was 0, the “Adverse Events Grade 2-4” value [2, 22] was 0 and the drug-related adverse events ([2]; oral 125 to 625 mg every 3 weeks) was “No Grade >1 drug-related adverse events occurred”. For the same compound, the “recommended phase II dose (RP2D)” value ([2]; oral, once every 3 weeks) was 625 mg, the “Laboratory studies and physical exams” value ([2]; phase I patients) was “did not reveal any drug-related abnormalities” and the cardiovascular assessments ([2]; phase I patients) was “no drug-related effects”. The “AUC, Min” value [3, 23] was 13868 h · ng/m, the “CL/F, Geo. Mean” value [3, 23] was 25.41 L/h and the “CL/F, Max” value [3, 23] was 45.07 L/h. The “CL/F, Mean” value [3, 23] was 27.19 L/h, the “CL/F, Median” value [3, 23] was 24.83 L/h and the “CL/F, Min” value [3, 23] was 14.03 L/h. For the same compound, the “Cmax, Max” value [3, 23] was 7470 ng/mL, the “Cmax, Min” value [3, 23] was 1530 ng/mL and the “Tlag, Max” value [3, 23] was 0.30 h. For the same compound, the “Tlag, Mean” value [3, 23] was 0.05 h, the “Tlag, Median” value [3, 23] was 0.00 h and the “Tlag, Min” value [3, 23] was 0.00 h. The “Tmax, Max” value [3, 23] was 3.95 h, the “Tmax, Min” value [3, 23] was 0.37 h and the “t1/2, Max” value [3, 23] was 12.55 h. The “t1/2, Min” value [3, 23] was 7.71 h, the “λZ, Geo. Mean” value [3, 23] was 0.073 h⁻¹ and the “λZ, Max” value [3, 23] was 0.090 h⁻¹. The “λZ, Mean” value [3, 23] was 0.074 h⁻¹, the “λZ, Median” value [3, 23] was 0.072 h⁻¹ and the “λZ, Min” value [3, 23] was 0.055 h⁻¹. It also gave a concentration at 24 h ([3]; human, in vivo) of 0.9 µM, a Vd ([3]; human, in vivo, 625 mg) of 381 L and an AUC ([3]; human, in vivo, 625 mg, AUC, Geo. Mean, N=6 patients receiving 625 mg ONC201 every three weeks) of 24600 ng·h/mL. The AUC ([3]; human, in vivo, 625 mg, AUC, Mean, N=6 patients receiving 625 mg ONC201 every three weeks) was 26300 ng·h/mL, the AUC ([3]; human, in vivo, 625 mg, AUC, Median, N=6 patients receiving 625 mg ONC201 every three weeks) was 25600 ng·h/mL and the AUC(0-t) [3, 24] was 25500 ng·h/mL. The AUC(0-t) [3, 25] was 24300 ng·h/mL, the Cmax ([3]; human, in vivo, 625 mg, Cmax, Geo. Mean, N=6 patients receiving 625 mg ONC201 every three weeks) was 2890 ng/mL and the Cmax ([3]; human, in vivo, 625 mg, Cmax, Mean, N=6 patients receiving 625 mg ONC201 every three weeks) was 3310 ng/mL. The Cmax ([3]; human, in vivo, 625 mg, Cmax, Median, N=6 patients receiving 625 mg ONC201 every three weeks) was 2720 ng/mL, the AUC ([3]; human, in vivo, 625 mg, Mean AUC, top dose cohort (625 mg)) was 26300 ng·h/mL and the Tmax [3, 26] was 1.34 h. It also gave a Tmax [3, 24] of 1.79 h, a Tmax [3, 25] of 1.91 h and a Vd/F [3, 26] of 348 L. It also gave a Vd/F [3, 24] of 381 L, a Vd/F [3, 25] of 404 L and a Cmax ([3]; human, in vivo, 625 mg, mean Cmax, top dose cohort (625 mg), first dose) of 3310 ng/mL. For the same compound, the half-life ([3]; human, in vivo, 625 mg, mean t1/2, top dose cohort (625 mg)) was 9.62 h, the half-life ([3]; human, in vivo, 625 mg, t1/2, Geo. Mean, N=6 patients receiving 625 mg ONC201 every three weeks) was 9.49 h and the half-life ([3]; human, in vivo, 625 mg, t1/2, Mean, N=6 patients receiving 625 mg ONC201 every three weeks) was 9.62 h. For the same compound, the half-life ([3]; human, in vivo, 625 mg, t1/2, Median, N=6 patients receiving 625 mg ONC201 every three weeks) was 9.6 h, the Cmax ([3]; human, in vivo, Cmax, plasma, as quoted for the CYP margin) was 9 µM and the AUC ([3]; human, in vivo, po, 625 mg, AUC, oral ONC201, PK analysis) was 25000 ng·h/mL. For the same compound, the Cmax ([3]; human, in vivo, po, 625 mg, Cmax, 625 mg (RP2D) orally every 3 weeks) was 1500 ng/mL to 7500 ng/mL and 3.9 µM to 19.4 µM, the half-life ([3]; human, in vivo, po, 625 mg, half-life, oral ONC201, PK analysis) was 9.6 h and the “dose at which plasma concentrations / systemic exposure (AUC, Cmax) saturated” value ([3]; oral, dose escalation 125-625 mg) was 375 mg. The “inhibitor of BCRP” value (human BCRP) was “inhibitor”.
